The numbers were not newly measured in patent publication US20030216458A1, “Combination therapy for the treatment of migraine” (priority 1999, published 2003), which cites them from elsewhere.

Structures are written as SMILES.

For the data set the following is noted: anaesthetized dog.

Consider `CNS(=O)(=O)Cc1ccc2[nH]cc(CCN(C)C)c2c1` [Sumatriptan], for which the “effect on carotid vascular resistance” value is given as “selective increase in carotid vascular resistance”.
